Assays:
[1] = target: Banner PD-seeded α-synuclein fibrils (Homo sapiens (Human), UniProt P37840); experiment: Homologous competition radioligand binding assay, PD-seeded fibrils; conditions: 150 nM Banner PD seeded fibrils
Procedure: The equilibrium dissociation constant (Kd) for a series of compounds was determined using direct radioactive competitive binding assays (homologous or heterologous) with either recombinant α-synuclein fibrils or brain tissue homogenates from AD cases.
Recombinant protein was produced in E. coli using protocols based on previously described methods for α-synuclein [Giasson, B. I., et al., “Mutant and wild type human alpha-synucleins assemble into elongated filaments with distinct morphologies in vitro,” 1999, J Biol. Chem., 274:7619-7622; Huang, C., et al., “A new method for purification of recombinant human alpha-synuclein in Escherichia coli,” 2005, Protein Expr Purif, 42:173-177; Yu, L., et al, “Synthesis and in vitro evaluation of á-synuclein ligands,” 2012, Bioorg. Med. Chem., 20:4625-4634] and tau [Li, W., et al., “Characterization of two VQIXXK motifs for tau fibrillization in vitro,” 2006, Biochemistry, 45:15692-15701]. BL21(DE3)RIL E. coli were transformed with a pRK172 bacterial expression plasmid containing the human α-synuclein coding sequence. […]. Overnight cultures were centrifuged at 3,900×g for 10 min at 25° C. and the bacterial pellets were resuspended by gentle vortexing in 20 ml osmotic shock buffer (30 mM Tris-HCl, 2 mM EDTA, 40% Sucrose, pH 7.2) and then incubated at room temperature for 10 min. The cell suspension was then centrifuged at 8,000×g for 10 min at 25° C. and the pellet was resuspended in 22.5 ml cold H2O before adding 9.4 μl 2 M MgCl2 to each tube. The suspension was incubated on ice for 3 min prior to centrifugation at 20,000×g for 15 min at 4° C. After the supernatant was transferred to a fresh tube, streptomycin was added to a final concentration of 10 mg/ml and centrifuged at 20,000×g for 15 min at 4° C. The supernatant from this step was collected and dithiothreitol (DTT) and Tris-HCl pH 8.0 were added to final concentrations of 1 mM and 20 mM respectively, before boiling for 10 min to precipitate heat-sensitive proteins, which were pelleted at 20,000×g for 15 min at 4° C. The supernatant was collected and filtered through a 0.45 μm surfactant-free cellulose acetate filter (Corning) before loading onto a 1 ml DEAE Sepharose column equilibrated in 20 mM Tris-HCl pH 8.0, 1 mM EDTA, and 1 mM DTT. The DEAE column was washed with 20 mM Tris-HCl pH 8.0, 1 mM EDTA, 1 mM DTT before eluting α-synuclein protein in 20 mM Tris-HCl pH 8.0 buffer with 1 mM EDTA, 1 mM DTT and 0.3 M NaCl. Purified α-synuclein protein was dialyzed overnight in 10 mM Tris-HCl pH 7.6, 50 mM NaCl, 1 mM DTT.
Purified recombinant α-synuclein monomer (2 mg/ml) was incubated in 20 mM Tris-HCl, pH 8.0, 100 mM NaCl for 72 h at 37 C with shaking at 1000 rpm in an Eppendorf Thermomixer. […] The concentration of α-synuclein monomer in the supernatant was determined in a BCA protein assay according to the manufacturer's instructions, using a bovine serum albumin (BSA) standard curve. The measured decrease in α-synuclein monomer concentration was used to determine the concentration of fibrils in the 72 h fibril reaction mixture. […]
These direct binding assays used a fixed concentration of either fibrils or PD/AD tissue and the radioligand (e.g., [^18F]28) and varying concentration ranges of corresponding homologous non-radiolabeled standard reference compound. […] Reactions were incubated at 37° C. for 1 h before quantifying bound radioligand. […]

[2] = target: PD-seeded fibrils (Homo sapiens (Human), UniProt P37840); experiment: Heterologous competition binding assay with [18F]TZ61-44 as radioligand; conditions: radioligand [18F]TZ61-44, 25 nM PD-seeded fibrils
Procedure: The equilibrium inhibitor constant (Ki) of a series of compounds was measured using heterologous radioactive binding assays with [^18F]TZ61-44, […], or [^125I]TZ61-84 as the screening radioligands. EC50 values for each compound were determined by fitting the data to the equation Y=Bottom+(Top−Bottom)/(1+(X−Log EC50)^−Hillcoefficient) using nonlinear regression by Kaleidagraph software, where Top and Bottom are the Y values for the top and bottom plateaus of the binding curve. The Ki values were derived from the EC50 values using the Cheng-Prusoff equation: Ki=EC50/(1+[radioligand]/Kd). FIGS. 5A-5E show the inhibition curves for TG-1-90B, TZ55-101, TZ61-84, TZ55-107, and TZ55-81 using [^18F]TZ61-44 as the radioligand. FIG. 11B-C show the inhibition curves for two separate experiments on PD fibrils for TZ55-101 using […] as the radioligand. FIGS. 12A-12F show the inhibition curves for TZ66-3, TZ64-015, TZ64-016, TZ64-018, TZ64-019, and TZ64-020 using [^18F]TZ61-44 as the radioligand. FIGS. 13A-13D show the inhibition curves for TZ66-9, TZ66-8, and TZ55-107 using [^18F]TZ61-44 as the radioligand.

`COc1ccc2nc(-c3csc(C=O)c3)ccc2c1` [TZ55-81] showed a Kd [1] of 29 nM, an EC50 [2] of 46 nM and a Ki ([2]; Cheng-Prusoff from EC50) of 43 nM.
